Columns and labels:
Format in all cases: cell-based, mouse
[1] = test system: LPS-induced NO production in RAW264.7 macrophages; experiment: Inhibition of LPS-induced NO production (Griess)
Procedure: (§1) The RAW 264.7 mouse macrophage cell line was obtained from the China Cell Line Bank (Beijing, China). Cells were cultured in complete medium (DMEM supplemented with 10% heat-inactivated FBS, 3 mM glutamine and antibiotics (100 U/mL penicillin and 100 U/mL streptomycin)) at 37 °C in a humidified incubator containing 5% CO2 and 95% air. Cells were treated with various concentrations of synthesised compounds for 30 min followed by stimulation with LPS (1 µg/L).
Nitrite, a stable product of nitric oxide, was used to assess NO production. To study the effects of the isolated compounds on NO production, RAW264.7 cells were plated at 1 × 10^5 cells/well in a 96-well microplate and incubated overnight. The cells were pre-treated with various concentrations of the test compounds (3, 7.5, 10, 15, 30 or 100 µM) and further co-cultured with 1 µg/mL LPS for 24 h. Un-pre-treated and un-stimulated RAW 264.7 cells were conducted as the blank control group. At different time points, the supernatant (50 µL) was assayed with NO assay kit. The culture supernatant (50 µL) was mixed with an equal volume of the Griess reagent (1% sulphanilamide, 0.1% N-[1-naphthy] ethylenediamine dihydrochloride) and NO production were determined at 540 nm with an ELISAplate reader.

[2] = MTT assay for cell viability; details: mouse, RAW264.7 macrophage cells; 30 μM, 24 h, RAW264.7 cells
Procedure: as §1, with “Cells were treated with various concentrations of synthesised compounds for 30 min followed by stimulation with LPS (1 µg/L).” left out
Cell viability studies induced by synthesised compounds were evaluated by 3-(4,5-dimethylthiazol-2-yl)-2,5-diphenyltetrazolium bromide (MTT) assay. RAW264.7 macrophages were seeded in 96-well plates at a density of 5 × 10^5 cells/mL in complete medium and incubated for 24 h (100 µL/well). Then the cells were treated with different concentrations of synthesised compounds for 24 h. 150 µL MTT (5 g/L in PBS) was added to each well and the cells were further incubated for 4 h. The supernatant was removed and the cells were lysed with 150 µL/well DMSO. The optical density was measured at 570 nm on a microplate reader (Thermo Scientific, MA, USA).

[3] = test system: COX-2 protein expression in LPS-induced RAW 264.7 cells; experiment: Western blot, COX-2 protein expression; details: 15 µM, LPS 1 µg/mL, p < .001
Procedure: (§2) The cells were collected and washed three times with ice-cold PBS. The cells were treated with a cell lysis buffer [50 mM Tris (pH 7.6), 150 mM NaCl, 5 mM EDTA (pH 8.0), 0.6% NP-40, 1 mM Na3VO4, 20 mM β-glycerophosphate, 1 mM phenylmethylsulfonyl fluoride, 2 mM p-nitrophenyl phosphate, and 1:25 Complete Mini Protease Inhibitor cocktail (Boehringer, Mannheim,Germany)] and kept on ice for 30 min. The cell lysates were centrifuged (12,000 g at 4 °C) for 5 min to obtain a cytosolic fraction. The protein concentration was determined by BCA protein assay kit (Beyotime, Haimen, China). Aliquots of the lysates were separated on 10% sodium dodecyl sulphate (SDS)-polyacrylamide gel electrophoresis (PAGE) and then electro blotted onto a polyvinylidene difluoride (PVDF) membrane. The blots were blocked with 5% (w/v) non-fat dry milk for 2 h at 37 °C, followed by incubation with specific primary antibody at 4 °C overnight. Blots were washed with Tween 20/Tris-buffered saline [TTBS, 20 mM Tris–HCl buffer, pH 7.6, containing 137 mM NaCl and 0.05% (vol/vol) Tween 20] and incubated with a peroxidase-conjugated secondary antibody for 1 h. Blots were again washed with TTBS and the immune active proteins were detected using ECL plus (Thermo, USA). […] Results are expressed as the relative ratio of the specific band compared with the internal reference.

[4] = test system: phosphorylation of p38 in RAW 264.7 cells; experiment: Western blot, LPS-induced phosphorylation of p38; details: 30 µM, p < .01
Procedure: (§3) RAW 264.7 cells (5 × 10^5 cells/well) plated onto 6-well plates were incubated for 24 h and treated with 7.5, 15.0 or 30.0 µM of compound 6p for 30 min and then stimulated with […] of LPS for 24 h. The cells were collected and washed three times with ice-cold PBS. The cells were treated with a cell lysis buffer [50 mM Tris (pH 7.6), 150 mM NaCl, 5 mM EDTA (pH 8.0), 0.6% NP-40, 1 mM Na3VO4, 20 mM β-glycerophosphate, 1 mM phenylmethylsulfonyl fluoride, 2 mM p-nitrophenyl phosphate, and 1:25 Complete Mini Protease Inhibitor cocktail (Boehringer, Mannheim,Germany)] and kept on ice for 30 min. The cell lysates were centrifuged (12,000 g at 4 °C) for 5 min to obtain a cytosolic fraction. The protein concentration was determined by BCA protein assay kit (Beyotime, Haimen, China). Aliquots of the lysates were separated on 10% sodium dodecyl sulphate (SDS)-polyacrylamide gel electrophoresis (PAGE) and then electro blotted onto a polyvinylidene difluoride (PVDF) membrane. The blots were blocked with 5% (w/v) non-fat dry milk for 2 h at 37 °C, followed by incubation with specific primary antibody at 4 °C overnight. […] Blots were again washed with TTBS and the immune active proteins were detected using ECL plus (Thermo, USA). […] Results are expressed as the relative ratio of the specific band compared with the internal reference.

[5] = test system: iNOS protein expression in LPS-induced RAW 264.7 cells; experiment: Western blot, iNOS protein expression
Procedure: as §2

[6] = test system: phosphorylation of JNK in RAW 264.7 cells; experiment: Western blot, LPS-induced phosphorylation of JNK
Procedure: as §3

## COc1cc(Cn2c(=O)c3nnc(C(N)=O)n3c3ccccc32)cc(OC)c1OC [6p, 5-(3,4,5-trimethoxybenzyl)-4-oxo-4,5-dihydro-[1,2, 4]triazolo[4,3-a]quinoxaline-1-carboxamide]
[1]; 3 µM, p < .001 vs LPS alone
  inhibition of NO production: significantly inhibit
[1]; Mus musculus, RAW264.7, 10 µM, LPS 1 µg/mL, 24 h, read-out: NO inhibitory activity (% inhibition)
  inhibition at 10 µM: 38.8%
[2]
  viability at 24 h, 30 µM: 83.7 ± 1.53%
[3]
  inhibition of COX-2 protein expression: 53.44%
[4]
  phosphorylation of p38: markedly diminished
[5]; 30 µM, LPS 1 µg/mL, p < .001
  inhibition of iNOS protein expression: 39.89%
[5]; 7.5, 15 and 30 µM
  iNOS protein expression, dose dependence: dose-dependent manner
[6]; 30 µM, p < .001
  phosphorylation of JNK: markedly diminished
[6]; 7.5, 15 and 30 µM
  LPS-induced phosphorylation of JNK, concentration dependence: concentration-dependent manner

Source: PMC6853232, “Discovery and evaluation of novel synthetic 5-alkyl-4-oxo-4,5-dihydro-[1,2,4]triazolo[4,3-a]quinoxaline-1-carbox-amide derivatives as anti-inflammatory agents” (Journal of Enzyme Inhibition and Medicinal Chemistry, 2019)
